The target in series [1] is T1, BSA (Bos taurus, UniProt P02769).
T1 construct: gene ALB
Set-up: Intact protein LC/MS covalent labelling, fragments in pools of five, 200 uM each, 4 °C. The note with it: 24 h, 4 °C, pool of five; 200 µM; covalent.

For series [2], the target named is T2, NNMT (hNNMT) (Homo sapiens, UniProt P40261).
T2 construct: wild type, N-terminal His6 tag kept (no cleavage described), E. coli, construct 31248 Da
T2 sequence (P40261 1-264): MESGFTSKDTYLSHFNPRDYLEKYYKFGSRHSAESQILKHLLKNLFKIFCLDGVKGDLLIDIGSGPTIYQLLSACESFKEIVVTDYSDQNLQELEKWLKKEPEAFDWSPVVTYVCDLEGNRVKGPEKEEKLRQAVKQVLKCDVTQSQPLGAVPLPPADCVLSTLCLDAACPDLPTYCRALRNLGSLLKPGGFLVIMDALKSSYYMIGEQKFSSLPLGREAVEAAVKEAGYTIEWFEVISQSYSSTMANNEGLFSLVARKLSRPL
Details: Intact protein LC/MS covalent labelling, fragments in pools of five, 200 uM each, 4 °C. The note with it: 24 h, 4 °C, pool of five; 200 µM; covalent.

The target in series [3] is T3, NUDT7 (Homo sapiens, UniProt P0C024).
T3 construct: residues 14-235, E. coli, pNIC28-Bsa4, N-terminal His6 tag removed by TEV, construct 26672 Da
T3 sequence (P0C024 14-235): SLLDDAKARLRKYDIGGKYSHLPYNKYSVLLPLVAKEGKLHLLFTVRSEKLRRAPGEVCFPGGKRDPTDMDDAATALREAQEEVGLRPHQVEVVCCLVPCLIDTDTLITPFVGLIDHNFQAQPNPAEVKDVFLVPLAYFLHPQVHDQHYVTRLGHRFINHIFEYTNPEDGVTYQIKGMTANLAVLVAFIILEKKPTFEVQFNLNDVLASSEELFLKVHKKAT
Details: Intact protein LC/MS covalent labelling, fragments in pools of five, 200 uM each, 4 °C. The note with it: 24 h, 4 °C, pool of five; 200 µM; covalent.

For series [4], the target named is T4, OTUB2 (OTUB2A) (Homo sapiens, UniProt Q96DC9).
T4 construct: full length residues 1-234, E. coli BL21(DE3)-R3, His tag removed by TEV, construct 27312 Da
T4 sequence (Q96DC9 1-234): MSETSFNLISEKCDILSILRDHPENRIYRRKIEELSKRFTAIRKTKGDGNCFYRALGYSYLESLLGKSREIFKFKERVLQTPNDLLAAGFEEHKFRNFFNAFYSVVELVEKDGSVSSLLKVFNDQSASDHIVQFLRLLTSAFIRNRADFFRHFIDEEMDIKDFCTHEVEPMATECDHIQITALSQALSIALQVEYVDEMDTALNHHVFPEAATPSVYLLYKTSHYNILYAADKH
Details: Intact protein LC/MS covalent labelling, fragments in pools of five, 200 uM each, 4 °C. The note with it: 24 h, 4 °C, pool of five; 200 µM; covalent.

The target of series [5] is T5, PCAF (Homo sapiens, UniProt Q92831).
T5 construct: gene KAT2B
T5 sequence (Q92831 whole entry): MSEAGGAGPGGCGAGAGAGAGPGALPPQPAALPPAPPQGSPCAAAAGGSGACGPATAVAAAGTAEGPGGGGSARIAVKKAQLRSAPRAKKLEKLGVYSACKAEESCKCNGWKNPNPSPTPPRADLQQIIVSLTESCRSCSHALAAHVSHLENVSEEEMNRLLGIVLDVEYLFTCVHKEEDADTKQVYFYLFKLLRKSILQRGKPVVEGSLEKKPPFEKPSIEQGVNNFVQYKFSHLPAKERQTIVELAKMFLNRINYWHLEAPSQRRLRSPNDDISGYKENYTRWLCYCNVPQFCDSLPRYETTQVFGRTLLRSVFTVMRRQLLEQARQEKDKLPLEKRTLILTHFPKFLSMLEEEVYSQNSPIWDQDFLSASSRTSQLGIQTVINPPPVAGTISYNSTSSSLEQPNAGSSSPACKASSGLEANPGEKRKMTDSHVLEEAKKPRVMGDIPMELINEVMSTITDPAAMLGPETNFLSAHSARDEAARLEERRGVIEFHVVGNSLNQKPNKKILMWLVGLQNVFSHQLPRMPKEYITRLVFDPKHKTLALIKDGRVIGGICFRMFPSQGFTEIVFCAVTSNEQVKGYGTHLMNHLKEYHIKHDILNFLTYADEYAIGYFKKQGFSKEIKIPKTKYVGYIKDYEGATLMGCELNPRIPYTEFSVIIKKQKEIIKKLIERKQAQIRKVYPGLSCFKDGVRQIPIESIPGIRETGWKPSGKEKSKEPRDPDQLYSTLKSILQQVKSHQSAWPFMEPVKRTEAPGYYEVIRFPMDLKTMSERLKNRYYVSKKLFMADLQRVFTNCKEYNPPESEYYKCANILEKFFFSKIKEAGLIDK
Details: Intact protein LC/MS covalent labelling, fragments in pools of five, 200 uM each, 4 °C. The note with it: 24 h, 4 °C, pool of five; 200 µM; covalent.

Series [6] is described as follows: in vitro. Details: species or system CCD841, HEK293. The conditions noted are these: human, hb2 cells, read-out: HB-2 Cells Viability (%).
A short description of series [7]: in vitro. Details: species or system HB2, HEK293. The note with it: human, ccd841 cells.
Series [8] can be described thus: in vitro. The conditions noted are these: human, hek293 cells. Set-up: species or system HB2, CCD841.

Like-named read-outs stand apart in the source and are kept apart here.

T1 sequence (P02769 whole entry): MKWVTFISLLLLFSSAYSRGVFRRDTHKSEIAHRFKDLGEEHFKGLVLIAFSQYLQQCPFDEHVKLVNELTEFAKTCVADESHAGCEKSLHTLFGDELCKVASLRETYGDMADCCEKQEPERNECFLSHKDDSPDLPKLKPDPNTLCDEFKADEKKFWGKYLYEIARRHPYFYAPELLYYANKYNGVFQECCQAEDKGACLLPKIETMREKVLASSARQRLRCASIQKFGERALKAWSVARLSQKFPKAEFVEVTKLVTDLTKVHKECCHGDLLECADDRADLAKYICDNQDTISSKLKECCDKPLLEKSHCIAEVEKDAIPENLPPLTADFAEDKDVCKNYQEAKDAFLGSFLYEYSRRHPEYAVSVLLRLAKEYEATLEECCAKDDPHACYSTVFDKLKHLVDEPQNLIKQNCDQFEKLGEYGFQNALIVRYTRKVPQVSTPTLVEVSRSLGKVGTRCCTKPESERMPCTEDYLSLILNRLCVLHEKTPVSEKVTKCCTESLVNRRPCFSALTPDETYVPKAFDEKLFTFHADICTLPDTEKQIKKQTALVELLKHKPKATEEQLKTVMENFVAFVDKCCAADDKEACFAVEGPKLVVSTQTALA

In series [1], `C=CC(=O)N1CCC(Oc2cnc3ccccc3n2)CC1` [PCM-0102925] showed a BSA of 0. The NNMT in series [2] is on record as 0. In series [3], this compound showed an NUDT7 of 0. Moreover, the OTUB2 in series [4] is recorded as 0. In series [5], this compound returned a PCAF of 0. For the same compound, the viability at 48 h, 10 µM in series [6] came to 107%; in series [7], 102%; in series [8] it was 86.8%.
`Cl.O=C(CCl)NCc1ccccn1` [PCM-0102950] displayed a BSA in series [1] of 0. For the same compound, the NNMT in series [2] is 0. This compound also gave an NUDT7 in series [3] of 0. Also, in series [4], the OTUB2 is on record as 0. The PCAF in series [5] was 0. Moreover, the viability at 48 h, 10 µM in series [6] amounted to 100%; in series [7] it was 109%; in series [8], 97.4%.
`O=C(CCl)NC1CCOc2ccccc21` (stereo not shown) [PCM-0102871] yielded a BSA in series [1] of 0. Also, in series [2], the NNMT worked out at 0. The same compound came in with an NUDT7 in series [3] of 0. This compound yielded an OTUB2 in series [4] of 0.44. Besides, the PCAF in series [5] was 0. Further, the figures for the viability at 48 h, 10 µM in series [6], in series [7] and in series [8] were 92.9%, 87.1% and 69.5%, respectively.
As for `C=CC(=O)N1CCCCC1C(=O)O` (stereo not shown) [PCM-0102507], the BSA in series [1] was found to be 0. The same compound had an NNMT in series [2] of 0. In series [3], this compound registered an NUDT7 of 0. In addition, the OTUB2 in series [4] came to 0. In series [5], this compound registered a PCAF of 0. Moreover, the viability at 48 h, 10 µM in series [6] amounted to 101%; in series [7], 109%; in series [8], 95.6%.
For the compound `Cc1ccccc1CN1CCN(C(=O)CCl)CC1.Cl` [PCM-0102876], the BSA in series [1] is listed as 0. In series [2], this compound came in with an NNMT of 0. The compound further yielded an NUDT7 in series [3] of 0. The same compound had an OTUB2 in series [4] of 0. Further, the PCAF in series [5] is 0. For the same compound, the results for the viability at 48 h, 10 µM in series [6], in series [7] and in series [8] were 31.1%, 69.2% and 38.1%, respectively.
On to `Cc1ccc(S(=O)(=O)NC(=O)CCl)cc1` [PCM-0102850], for which the BSA in series [1] came out at 0. This compound also displayed an NNMT in series [2] of 0. In addition, in series [3], the NUDT7 turned out to be 0. In series [4], the OTUB2 was found to be 0.13. The compound further displayed a PCAF in series [5] of 0. The viability at 48 h, 10 µM in series [6] was found to be 101%; in series [7] it was 114%; in series [8], 81.4%.
`COC(=O)NC(=O)CCl` [PCM-0102791]: the BSA in series [1] is reported as 0. This compound also displayed an NNMT in series [2] of 0. Further, the NUDT7 in series [3] is listed as 0. The compound also yielded an OTUB2 in series [4] of 0.09. The same compound displayed a PCAF in series [5] of 0. Further, the viability at 48 h, 10 µM in series [6] was found to be 106%; in series [7], 123%; in series [8], 94.3%.
`CN(Cc1cc(Br)cs1)C(=O)CCl` [PCM-0103081]: the BSA in series [1] is given as 0. In addition, in series [2], the NNMT is 0. The compound also registered an NUDT7 in series [3] of 0. This compound also had an OTUB2 in series [4] of 0. In series [5], this compound gave a PCAF of 0. Besides, the viability at 48 h, 10 µM in series [6] was determined as 5.1%; in series [7], 45.5%; in series [8] it was 11.9%.
Compound `Cc1cc(Cl)ccc1NC(=O)CCl` [PCM-0102214] came in with a BSA in series [1] of 0. In series [2], the NNMT is 0.3. The same compound came in with an NUDT7 in series [3] of 0.08. The OTUB2 in series [4] is recorded as 0.39. Besides, in series [5], the PCAF amounted to 0. Moreover, the viability at 48 h, 10 µM in series [6] was determined as 44.6%; in series [7], 67.9%; in series [8] it was 5.5%.
For the compound `C=CC(=O)N1CCC(c2noc(C3CC3)n2)CC1` [PCM-0102810], the BSA in series [1] stood at 0. Also, the NNMT in series [2] was 0. The same compound displayed an NUDT7 in series [3] of 0.06. Also, in series [4], the OTUB2 was determined as 0. For the same compound, the PCAF in series [5] is 0. For the same compound, the viability at 48 h, 10 µM stood at 103% in series [6], 103% in series [7] and 94.1% in series [8].
On to `O=C(CCl)NC(=O)NCC1COc2ccccc2O1` (stereo not shown) [PCM-0102092], for which the BSA in series [1] worked out at 0. This compound also showed an NNMT in series [2] of 0. Also, in series [3], the NUDT7 is on record as 0. Moreover, in series [4], the OTUB2 came to 0. In series [5], the PCAF amounted to 0. In addition, the results for the viability at 48 h, 10 µM in series [6], in series [7] and in series [8] were 49%, 33.4% and 7.6%, respectively.
In series [1], `O=C(CCl)NC(=O)NC1CCS(=O)(=O)C1` (stereo not shown) [PCM-0102100] had a BSA of 0. For the same compound, the NNMT in series [2] stood at 0. The NUDT7 in series [3] was determined as 0. In addition, the OTUB2 in series [4] was 0.09. The compound also showed a PCAF in series [5] of 0. Moreover, the viability at 48 h, 10 µM in series [6] turned out to be 101%; in series [7], 106%; in series [8], 99.5%.
In series [1], `Cc1csc(CC(=O)NNC(=O)CCl)n1.Cl` [PCM-0102095] registered a BSA of 0. The compound further gave an NNMT in series [2] of 0. This compound registered an NUDT7 in series [3] of 0. For the same compound, the OTUB2 in series [4] is on record as 0.51. The compound also showed a PCAF in series [5] of 0. Further, the viability at 48 h, 10 µM was determined as 93.3% in series [6], 79% in series [7] and 81.9% in series [8].
As to `O=C(Nc1ccccc1O)C1CCN(C(=O)CCl)CC1` [PCM-0102389], in series [1], the BSA came to 0. Besides, the NNMT in series [2] is given as 0. Moreover, the NUDT7 in series [3] was 0.1. Besides, the OTUB2 in series [4] is given as 0.14. The compound further showed a PCAF in series [5] of 0. For the same compound, the viability at 48 h, 10 µM in series [6] turned out to be 35.7%; in series [7], 63%; in series [8] it was 16%.
In series [1], `CN(Cc1ccc(F)cc1)C(=O)CCl` [PCM-0102939] showed a BSA of 0. The NNMT in series [2] came out at 0. In series [3], this compound showed an NUDT7 of 0. The compound also gave an OTUB2 in series [4] of 0.1. The PCAF in series [5] was 0. Also, the figures for the viability at 48 h, 10 µM in series [6], in series [7] and in series [8] were 34.8%, 69.2% and 42.7%, respectively.
`C=CC(=O)N1CCCC(Oc2ncccc2F)C1` (stereo not shown) [PCM-0102725] gave a BSA in series [1] of 0. Further, in series [2], the NNMT is reported as 0.13. This compound registered an NUDT7 in series [3] of 0. This compound also gave an OTUB2 in series [4] of 0.07. Besides, in series [5], the PCAF worked out at 0. Also, the viability at 48 h, 10 µM in series [6] was 108%; in series [7], 109%; in series [8], 80.3%.
In the case of `C=CC(=O)N1CCC(NC(=O)OC(C)(C)C)CC1` [PCM-0102617], the BSA in series [1] was 0. This compound displayed an NNMT in series [2] of 0.16. This compound showed an NUDT7 in series [3] of 0. Further, in series [4], the OTUB2 is on record as 0. This compound also yielded a PCAF in series [5] of 0. The viability at 48 h, 10 µM in series [6] amounted to 104%; in series [7], 105%; in series [8], 94.2%.
Compound `CN(CC1CC1)C(=O)CCl` [PCM-0102714] came in with a BSA in series [1] of 0. The compound further came in with an NNMT in series [2] of 0. The compound further gave an NUDT7 in series [3] of 0. This compound gave an OTUB2 in series [4] of 0. In series [5], this compound yielded a PCAF of 0. The viability at 48 h, 10 µM in series [6] was 97%; in series [7], 84.8%; in series [8] it was 88.3%.
Regarding `C=CC(=O)N1CCC(c2nccn2C)C1` (stereo not shown) [PCM-0102553], the BSA in series [1] worked out at 0. Moreover, the NNMT in series [2] worked out at 0.11. Further, the NUDT7 in series [3] worked out at 0. The compound also yielded an OTUB2 in series [4] of 0. For the same compound, the PCAF in series [5] is reported as 0. Further, the viability at 48 h, 10 µM in series [6] was determined as 99.3%; in series [7], 128%; in series [8], 103%.
Compound `C=CC(=O)N1CCCn2c(cc3ccccc32)C1` [PCM-0102730] came in with a BSA in series [1] of 0. In series [2], the NNMT was determined as 0. Moreover, the NUDT7 in series [3] was 0. The compound also had an OTUB2 in series [4] of 0.18. In series [5], this compound yielded a PCAF of 0. Besides, the viability at 48 h, 10 µM in series [6] was determined as 104%; in series [7], 92.2%; in series [8], 85%.

These data come from publication PMC6556873, “Rapid Covalent-Probe Discovery by Electrophile-Fragment Screening” (Journal of the American Chemical Society, 2019).
